How the values were obtained:
E. coli ARL3 = assay: Detection of mercury using bioluminescence, strain ARL3; assay type: cell-based; details: 500 μg HgCl2/L
Protocol: (§1) Strains ARL1, ARL2, and ARL3 were screened for bioluminescence production in the presence of HgCl2. Each strain was grown in LB medium to an OD546nm of 0.35 at which time 500 μg HgCl2/L was added. Induction of bioluminescence in the presence of mercury was rapid (FIG. 5) with significant light produced in 30 minutes. Strain ARL2 had higher background bioluminescence (˜31,486 cps) in the absence of mercury relative to strain ARL1 and ARL3 (˜13,798 and ˜12,762 respectively). After 20 minutes, strain ARL2 produced approximately twice the amount of bioluminescence ((˜1,791,560 cps) relative to strains ARL1 and ARL3 (˜917.496 and 825,240 cps respectively).

E. coli ARL1 = assay: Detection of mercury using bioluminescence, strain ARL1; assay type: cell-based; details: 500 μg HgCl2/L
Protocol: as §1

E. coli ARL2 = assay: Detection of mercury using bioluminescence, strain ARL2; assay type: cell-based; details: 500 μg HgCl2/L
Protocol: as §1

P. fluorescens 5RL [1] = assay: Prototype test strip, naphthalene/salicylate bioreporter; assay type: cell-based; details: 5 ppm naphthalene in mixture with 1 ppm Hg2+ and 10 ppm toluene
Text: (§2) 1. The bottom layer is absorbent Whatman filter paper.
(§3) 2. The second layer is an impermeable water barrier. Currently we are using aluminum foil.
(§4) 4. The fourth layer is the styrene sheet. […] There is one circle for each bioreporter.
(§5) 5. The last layer is the encapsulated cells.
(§6) Water will be wicked up the filter paper.

[2] = test system: P. fluorescens 5RL (pUTK21); details: cited from earlier work
P. putida TVA8 [3] = details: cited from earlier work
P. putida TVA8 [4] = assay: Prototype test strip, toluene bioreporter; assay type: cell-based; details: 10 ppm toluene in mixture
Text: as §2, §3, §4, §5, §6
[…]. […] […].

P. fluorescens 5RL [5] = details: salicylate 10 and 100 ppm, cellulose filter strips, room temperature
Protocol: Strips were removed and excess fluid was drained. These filter strips with cells were placed on a second set of strips impregnated with salicylic acid (10 and 100 ppm).
Briefly, a 100 μl sample of an uninduced culture of Pseudomonas fluorescens 5RL was placed in a sterile petri dish containing LB broth (10 ml) supplemented with tetracycline (14 μg/mI).

E. coli EC100 = details: cellulose strips

With `[Cl][Hg][Cl]` [HgCl2] the “time to significant light production” value (E. coli ARL3) was 30 min, the “bioluminescence after 20 minutes” value (E. coli ARL3; LB medium, OD546nm 0.35) was ~825,240 cps and the “time to significant light production” value (E. coli ARL1) was 30 min. The “time to significant light production” value (E. coli ARL2) was 30 min and the “bioluminescence after 20 minutes” value (E. coli ARL2; LB medium, OD546nm 0.35) was ~1,791,560 cps.
In the case of `c1ccc2ccccc2c1` [Naphthalene], the “visibility of bioluminescence on test strip” value (P. fluorescens 5RL [1]) is given as “visible to the naked eye”, the “Lower Detection Limits” value [2] is given as “˜50 ppb” and the “Response Time” value [2] is given as “˜1 hour”.
In the case of `Cc1ccccc1` [Toluene], the “Response Time” value (P. putida TVA8 [3]) is given as 25 ppm and the “visibility of bioluminescence on test strip” value (P. putida TVA8 [4]) is given as “only detectable with a photomultiplier”.
With `O=C([O-])c1ccccc1O.[Na+]` [salicylate, sodium salicylate] the “time to light visible to the naked eye” value (P. fluorescens 5RL [5]) was “less than 60 min” and the “time to visible light after contact of test strips with inducer solution” value (E. coli EC100) was “less than one hour”.

Source: US20030108980A1, “Bioluminescent methods for direct visual detection of environmental compounds” (priority 2000, published 2003)
